According to EP0719546B1, “LUV comprising saturated phospholipids and method of making the same” (THE LIPOSOME COMPANY, INC., priority 1987, dated 1988):
Structures can show the parent of a compound that is named as a salt.

Legend:
ascites L1210 tumor line = assay: Antitumor activity of vincristine, L1210 lymphocytic leukemia model; format: in vivo, DBA/2J mice; conditions: L1210 model in mice
Procedure: The antitumor activity of free and liposomal vincristine was assessed employing an L1210 lymphocytic leukemia model. DBA/2J mice (6 mice per group) were injected i.p. with 1 X 10^6 L1210 cells derived from the ascites fluid of a previously infected mouse. Liposomal vincristine made according to Example 27 was administered i.v. at various times after tumor innoculation and animal weights as well as mortality rates were monitored.
The above example was repeated by administering free vincristine and empty liposomes.

[1] = Vincristine trapping efficiency, pH gradient loading; format: physicochemical; conditions: DSPC/cholesterol (55:45) liposomes, 300 mM citric acid pH 4.0, 200 nm filter, drug to lipid approximately 0.17:1, external pH about 7.0, 60°C for 10 minutes
Procedure: These MLVs (100 mg total lipid/ml buffer) were extruded 10 times through a 200 nm pore size polycarbonate filter in a thermojacket LUVET heated to 60°C. Liposomes were added to a solution of 1 mg/ml vincristine sulfate (Oncovin, available from Eli Lilly and Co., Indianapolis, IN) to achieve a drug to total lipid weight ratio of approximately 0.17:1. To this was added a sufficient amount of 1.0 M Na2HPO4 to bring the pH of the solution to about 7.0. The samples were then heated at 60°C for 10 minutes at which time the drug was encapsulated inside the liposomes at a trapping efficiency in excess of 98%.
The above was repeated using EPC/cholesterol and HSPC/cholesterol.

[2] = Drug uptake into EPC large unilamellar vesicles with proton gradient; format: physicochemical; conditions: 300 mM citric acid pH 4.0 inside, pH 7.5 outside; for encapsulation by the vesicles: EPC LUVs (100 nm filters), 25°C
Procedure: Egg phosphatidylcholine (15 mg) was dispersed in 2 ml of 300 mM citric acid, pH 4.0 and the resulting MLVs frozen in liquid nitrogen and thawed in warm water (approximately 35°C) a total of five times. The lipid was then extruded 10 times through two stacked 100 nm pore size polycarbonate filters using the LUVET procedure. A proton gradient was created by passage of the vesicles over a Sephadex G-50 (fine) column (1.5 cm x 10 cm) preequilibrated with 300 mM NaCl, 20 mM HEPES, pH 7.5. An aliquot of the large unilamellar vesicles eluted from the column was diluted in 300 mM NaCl, […], pH 7.5 to a lipid concentration of 0.75 mgml^-1 in a total volume of 2 ml and then daunorubicin (113 ug) added from a stock solution (5.64 mgml^-1) in distilled water. The mixture was incubated at room temperature (25°C) and at intervals of 2, 10, 20, 30, 60 and 120 minutes, 100 ul aliquots were centrifuged through 1 ml "minicolumns" of Sephadex G-50 (fine) to remove any unencapsulated daunorubicin from the vesicles. The concentration of entrapped daunorubicin was determined from its absorbance at 500 nm in a Shimadzu UV-265 spectrophotometer following solubilization of the vesicles in 1% Triton X-100. Lipid was quantified by liquid scintillation counting using tracer levels of ^3H-DPPC. In excess of 98% of the daunorubicin was encapsulated by the vesicles giving a drug to lipid molar ratio of 1:5.
(§1) The materials and procedures of Example 30 were employed except that epirubicin (116 ug) was addded to the vesicle suspension (2 ml) from a stock solution (5.8 mgml^-1). Epirubicin uptake was quantified from its absorbance at 500 nm following solubilization of the vesicles in 1% Triton X-100. Epirubicin encapsulation by the vesicles was in excess of 98% giving a drug to lipid molar ratio of 1:5.
as §1, with “mitoxanthrone (103” for “epirubicin (116”, “added” for “addded”, “(2” for “(5.8”, “Mitoxantrone” for “Epirubicin”, “670” for “500”, “2%” for “1%”
The materials and procedures of Example 30 were employed except that cisplatin (200 uM) was combined with the liposome suspension.

[3] = In vitro release of doxorubicin from liposomes under dialysis; format: physicochemical; conditions: vesicles containing 300 mM citrate (pH 4.0), drug to lipid (wt/wt) ratio 1:10 to 1:3, over 24 hours
Procedure: The materials and-procedures of Example 6 were employed to determine the in vitro stability of the liposome-doxorubicin preparations. Release experiments were performed as follows: 10-fold dilute liposome samples were dialyzed for 24 hours against 1000 volumes of 20 mM HEPES, 150 mM NaCl (pH 7.5) at 37°C. At 1, 2, 4, 8, 10, and 24 hours post-preparation, a 150 ul aliquot was removed and the entrapped doxorubicin was determined.
EPC/cholesterol (55/45 mole ratio) was dried from chloroform to a thin film on a 500 ml capacity round bottom flask (400 mg total lipid). The film was hydrated with 4.0 ml of 300 mM citric acid at pH 4.0, forming MLVs. These MLVs were extruded through 2 stacked 0.22 um Nucleopore membrafil filters followed by extrusion 10 times through a 0.1 um Nucleopore membrafil (tortuous path) filter. To 1.0 ml of the resulting filtrate sample was added 275 ul of 1M Na2CO3, which raised the exterior pH to 8.3. An aliquot (0.6 ml) was heated for 3 minutes at 60°C, as was a 10 mg sample of doxorubicin. The liposome aliquot was added to the 10 mg doxorubicin and heated at 60°C for 5 minutes. The sample was divided into 2 parts. […] At 1 hour, a 150 ul aliquot was removed and analyzed for doxorubicin and lipid phosphate as previously described, after passage down a 1.0 ml Sephadex column equilibrated in the respective buffer. […]

[4] = Doxorubicin entrapment (trapping) efficiency, transmembrane pH gradient loading; format: physicochemical
Procedure: In order to determine whether an ionizable antineoplastic agent will load into liposomes in response to a transmembrane pH gradient, EPC-containing liposomes are made (about 1.0 mM EPC) with a ^3H-DPPC tracer and with a relatively acidic or basic internal medium such as 300 mM citric acid at about pH 4.0. These liposomes are extruded about 10 times according to the LUVET procedure through 2 100 nm filters, followed by adjustment of the external pH to a relatively basic or acidic pH, for example, sodium carbonate, at about pH 11.0. Following the formation of the pH gradient, the agent to be loaded, spiked with a radioactive isotope of the agent, is admixed with the liposomes to about 200 uM (per 1.0 mM lipid used). The liposomes are separated from free, unentrapped agent on G50-M Sephadex minicolumns at 500 X g for 3 minutes into 13 X 100 mm tubes, and radioactivity counted in a scintillation counter. Uptake of the drug in nmoles per umole of lipid is then plotted over incubation time. One hundred percent of the available doxorubicin is taken up into liposomes under these conditions.
In the case of doxorubicin, commercially available forms, such as powdered, solid, and methylparaben-containing forms (Adriamycin R.D.F., Adria Laboratories, Inc., Columbus, Ohio) may be used in the invention. When the methylparaben-containing form is employed, an aqueous solution such as saline may be added to that form, thereby dissolving it, followed by the admixing of this suspension with the liposomes which have the transmembrane pH gradient across their bilayers. Such admixing at 60°C for about 10 minutes results in more than about 98% encapsulation of the doxorubicin.
To determine entrapment efficiency of the liposome preparations, free and liposome encapsulated doxorubicin was monitored spectrophotometrically employing a Shimadzu UV-160 spectrophotometer as follows: the liposomal-doxorubicin samples were diluted with 20 mM Hepes, 250 mM NaCl (pH 7.5) to achieve approximate doxorubicin concentrations between 0.05-0.10 mM. The following sequence of measurements was made; (1) the absorbance at 600 nm of the diluted sample was adjusted to zero; (2) the sample was alkalinized to pH 10.5 with 1.0 N NaOH (0.02 ml/1.0 ml of sample) and the absorbance at 600 nm was recorded within 2 minutes; (3) the spectrophotometer was zeroed against a 0.2% Triton X-100 solution, and (4) the absorbance at 600 nm of the liposomal-doxorubicin sample to which Triton X-100 had been added (0.02 ml 20% Triton X-100 wt./wt./1.0 ml of sample) was determined. Free:total doxorubicin ratios were calculated as the absorbance at 600 nm upon NaOH addition divided by the absorbance after Triton X-100 addition.
To relate the pH-dependent spectral response technique to actual free and trapped drug levels, vesicle entrapped doxorubicin was determined as follows: A small aliquot of the liposomal-doxorubicin solution was passed down Sephadex G-50 gel columns equilibrated in 20 mM Hepes, 150 mM NaCl (pH 7.5) to separate free from liposome-associated drug. The liposome-containing eluant as well as aliquots of the original solutions were assayed for phospholipid and doxorubicin by phosphorus analysis and optical density at 480 nm, respectively as previously described in Mayer et al., (1986), Biochim Biophys. Acta., 857:123.
The materials and procedures of Example 3 were employed, but entrapment efficiency of liposome encapsulated doxorubicin was monitored by comparison of the color resulting from addition of an aliquot (0.2 ml) of the liposomes to 1.0 N NaOH to a color chart.
After completion of the entrapment procedure according to Example 6, 20 ul of the doxorubicin-liposomes were diluted to 200 ul with 20 mM HEPES, 150 mM NaCl (pH 7.5). An aliquot of this diluted sample (20 ul) was assayed for lipid phosphate by the procedure of Bartlett, J. Biol. Chem. 1959, 234:466-468. […]

SC-115 cells = assay: SC-115 tumor growth in Shinogi mice; format: in vivo, Male Shinogi mice; conditions: SC-115 tumor, 3.25, 6.5 and 13 mg/kg i.v., 3 injections at seven day intervals
Procedure: Male Shinogi mice (25-40g, 9 per group) were injected subcutaneously with 1X10^5 SC-115 cells obtained from a primary tumor in previously inoculated mice. Tumor growth was monitored by palpation and tumor measurements with a vernier caliper. Upon growth of the tumor to 0.5-2.0 g (tumor weight = [width^2 x length]/2, measurements in mm), mice were administered liposomal doxorubicin dose of 13 mg/kg i.v. at seven day intervals (3 injections of the indicated dose). Tumor growth was monitored 3 times weekly for 50 days post first treatment or until the tumor weight exceeded 9 g at which time the animal was sacrificed. Treatment doses were based on the initial animal weights prior to tumor inoculation.
The above procedure was repeated and the mice were administered saline or empty liposomes (administered at a dose equivalent to that given for a liposomal doxorubicin dose of 13 mg/kg).
The above procedure was repeated at 3.25 mg/kg dose and 6.5 mg/kg dose for free and liposomal doxorubicin.

Structure (SMILES): CC[C@]1(O)C[C@H]2CN(CCc3c([nH]c4ccccc34)[C@@](C(=O)OC)(c3cc4c(cc3OC)N(C=O)[C@H]3[C@@](O)(C(=O)OC)[C@H](OC(C)=O)[C@]5(CC)C=CCN6CC[C@]43[C@@H]65)C2)C1 [vincristine, vincristine sulfate]
- efficacy against the ascites L1210 tumor line (ascites L1210 tumor line): no efficacy
- trapping efficiency [1]: > 98%

Structure (SMILES): COc1cccc2c1C(=O)c1c(O)c3c(c(O)c1C2=O)C[C@@](O)(C(C)=O)C[C@@H]3O[C@H]1C[C@H](N)[C@H](O)[C@H](C)O1 [daunorubicin]
- encapsulation by the vesicles [2]: > 98%

Structure (SMILES): N.N.[Cl][Pt][Cl] [Cisplatin, cisplatin]
- accumulation into liposomes by the transmembrane pH gradient ([2]; EPC LUVs, 200 uM drug): not accumulated

Structure (SMILES): O=C1c2c(O)ccc(O)c2C(=O)c2c(NCCNCCO)ccc(NCCNCCO)c21 [Mitoxantrone, mitoxanthrone]
- encapsulation by the vesicles [2]: > 98%

Structure (SMILES): COc1cccc2c1C(=O)c1c(O)c3c(c(O)c1C2=O)C[C@@](O)(C(=O)CO)C[C@@H]3O[C@H]1C[C@H](N)[C@H](O)[C@H](C)O1 [doxorubicin]
- drug released [3]: less than 5%
- available doxorubicin taken up into liposomes ([4]; EPC liposomes (about 1.0 mM), 300 mM citric acid pH 4.0 inside, 100 nm filters, external sodium carbonate, about 200 uM agent): One hundred
- trapping efficiency ([4]; Example 14: HSPC/cholesterol 2.4:1 weight ratio, 300 mM citric acid pH 4.0, 0.2 um filter, external pH 8.5, 15 minutes at 60°C, color test): greater than 95%
- entrapment efficiency ([4]; Example 21: DSPC liposomes, 300 mM citric acid pH 4.0, 0.2 um filters, external pH 7.8, drug to lipid ratio 0.25:1, 60°C for 5 minutes): greater than 95%
- drug entrapped by the liposomes ([4]; Example 26: EPC/cholesterol (55:45 mol ratio), methods of Example 2): Greater than 98%
- encapsulation of the doxorubicin ([4]; methylparaben-containing form (Adriamycin R.D.F.) dissolved in saline, admixed with pH gradient liposomes at 60°C for about 10 minutes): more than 98%
- entrapment ([4]; vesicles containing 300 mM citrate (pH 4.0), drug to lipid (wt/wt) ratio between 1:10 and 1:3): about 100%
- trapping efficiencies ([4]; vesicles, drug to lipid ratios (wt/wt) 0.1:1 to 0.3:1, neutral, negatively charged or saturated phospholipids, varying cholesterol): about 100%
- tumor growth inhibition (SC-115 cells): dose dependent tumor growth inhibition

Structure (SMILES): COc1cccc2c1C(=O)c1c(O)c3c(c(O)c1C2=O)C[C@@](O)(C(=O)CO)C[C@@H]3O[C@H]1C[C@H](N)[C@@H](O)[C@H](C)O1 [Epirubicin, epirubicin]
- encapsulation by the vesicles [2]: > 98%
